Among the data in patent US4935434A, “Antiarthritic isoxazole-4-carboxamides” (Bristol-Myers Company, priority 1988, dated 1990) are inhibition in vivo values, retold here.

Experiment [1] concerns adjuvant-induced polyarthritis. Description: Modified developing adjuvant arthritis in rats (adjuvant-induced polyarthritis, AIP). In kind it is in vivo, male Lewis rats. As to conditions: Rattus norvegicus, po; for inhibition in vivo at 76 mg/kg: 76 mg/kg once daily p.o. d. 1-8; for inhibition in vivo at 50 mg/kg: 50 mg/kg once daily p.o. d. 1-8; for inhibition in vivo at 89 mg/kg: 89 mg/kg (d. 1-5) once daily p.o.; for inhibition in vivo at 100 mg/kg: 100 mg/kg once daily p.o. d. 1-8. The method, then:
A. Modified developing adjuvant arthritis in rats.
This test is based on the procedure originally described by Pearson (Proc. Soc. Biol. Med., 1956, pp 91-5). Each experimental group used six male Lewis rats weighing approx. 250 gm. Arthritis was produced by a single intradermal injection of Mycobacterium butyricum (0.6 mg in 0.1 ml mineral oil) into the base of the tail. Test compounds were administered orally, once daily, starting on the day of inoculation (day 1) through day 8. The initial dosage was reduced during this period when side effects were observed. The paw volume (average of two hind paws) was measured by the mercury displacement method at least twice weekly during the course of the experiment (40 to 42 days). The efficacy of a compound was expressed as the percent reduction of hind paw volume of treated vs. untreated rats using the following equation: [formula]
^a once daily, p.o., from d. 1-8 (unless otherwise specified).
^b % inhibition of paw edema: 0 = <25; + = 25-<40; ++ = 40-<60; +++ =

The subject of experiment [2] is carragenin-induced paw edema. As to the kind of experiment: Carrageenin induced paw edema in the rat (CIP). Type of experiment: in vivo, male Sprague Dawley rats. Particulars: single oral dose 50 mg/kg 30 min. prior to carrageenin, determined 4 hrs. after injection, read-out: CIP % inhib. (reduction in paw volume). The method, then: B. Carrageenin induced paw edema in the rat.
This test is based on the procedure originally described by Holsapple and Yim (Inflammation, 1984, 8:223). Six male Sprague Dawley rats weighing approx. 300 gm were used in each experimental group. The rats had been starved for 24 hours prior to injection of 0.1 ml of 1% carrageenin into the plantar surface of the left hind paw. Test compounds were dosed orally 30 minutes prior to carrageenin administration. The volumes of the left hind paws were measured by mercury displacement at 2,4, and 6 hours following carrageenin injection. The efficacy of a compound was expressed as the percent inhibition of carrageenin injected paw volume as compared to non-injected paw using the following equation: [formula] The peak of drug effects usually occurred 2-4 hours following carrageenin injection.
^c test compound administered as a single oral dose of 50 mg/kg 30
min. prior to carrageenin injection; % inhibition determined 4 hrs. after
carrageenin injection; I = <25% reduction in paw volume and A =
≥25% reduction in paw volume.
On the technique in general: The carrageenan paw model is a standard test of acute inflammation.

The mark [3] stands for this setting: 528 h, d. 20-22, read-out: AIP % inhib. (% inhibition of paw edema) d. 20-22.
[4] abbreviates: 1008 h, d. 40-42, read-out: AIP % inhib. (% inhibition of paw edema) d. 40-42.

Like-named read-outs stand apart in the source and are kept apart here.

For `CC(C)NC(=O)c1cnoc1C1CC1` [Example 1, 5-Cyclopropylisoxazole-4-(N-isopropyl)carboxamide], the inhibition in vivo at 76 mg/kg lay within 25 to 40% in experiment [1] (setting [3]) and 40 to 60% in experiment [1] (setting [4]). The inhibition in vivo at 50 mg/kg in experiment [2] is < 25%.

Regarding `CC(C)(C)NC(=O)c1cnoc1C1CC1` [Example 2, 5-Cyclopropylisoxazole-4-(N-tert-butyl)carboxamide], the figures for the inhibition in vivo at 50 mg/kg in experiment [1] (setting [3]), in experiment [1] (setting [4]) and in experiment [2] were 40 to 60%, 40 to 60% and < 25%, respectively.

As to `C#CCNC(=O)c1cnoc1C1CC1` [Example 3, 5-Cyclopropylisoxazole-4-[N-(2-propynyl)]carboxamide], the results for the inhibition in vivo at 50 mg/kg in experiment [1] (setting [3]), in experiment [1] (setting [4]) and in experiment [2] were 40 to 60%, 40 to 60% and < 25%, respectively.

With `O=C(NC1CC1)c1cnoc1C1CC1` [Example 4, 5-Cyclopropylisoxazole-4-(N-cyclopropyl)carboxamide], the inhibition in vivo at 89 mg/kg in experiment [1] (setting [3]) lay in the range of 40 to 60%; in experiment [1] (setting [4]), 60 to 80%. The inhibition in vivo at 50 mg/kg in experiment [2] was < 25%.

As for `O=C(Nc1cccc(C(F)(F)F)c1)c1cnoc1C1CC1` [Example 5, 5-Cyclopropylisoxazole-4-carboxylic acid 4-(3-trifluoromethyl)anilide], the inhibition in vivo at 50 mg/kg in experiment [1] (setting [3]) is 40 to 60%; in experiment [1] (setting [4]), 60 to 80%; in experiment [2], ≥ 25%.

In the case of `COc1ccc(NC(=O)c2cnoc2C2CC2)cc1` [Example 6, 5-Cyclopropylisoxazole-4-carboxylic acid (4-methoxy)anilide], the inhibition in vivo at 100 mg/kg in experiment [1] (setting [3]) was < 25%; in experiment [1] (setting [4]), 40 to 60%. In addition, the inhibition in vivo at 50 mg/kg in experiment [2] is < 25%.

`O=C(Nc1ccc(C(F)(F)F)cc1)c1cnoc1C1CC1` [Example 7, 5-Cyclopropylisoxazole-4-carboxylic acid 4-trifluoromethylanilide]: the inhibition in vivo at 50 mg/kg in experiment [2] was ≥ 25%.

On to `Cc1oncc1C(=O)NCc1ccc(C(F)(F)F)cc1` [Example 8, 5-Methylisoxazole-4-(N-4-trifluoromethylbenzyl)carboxamide], for which the inhibition in vivo at 50 mg/kg in experiment [2] is < 25%.
